Measurements: US11207312B2, “Metallo-beta-lactamase inhibitors and methods of use thereof” (priority 2017, dated 2021)

Assays:
[1] = tested on: Escherichia coli expressing NDM-1 (CLB30016); type: cell-based; settings: with imipenem 1 μg/ml; 95% inhibition of bacterial growth
Method in brief: (§1)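 Read-out is absorbance after 22–24 h at 35 °C, with MITC95 taken as the lowest inhibitor concentration that, alongside imipenem at 1 μg/ml, suppresses 95% of bacterial growth. Inocula came from saline-suspended colonies diluted 1:100 into 1.1× CAMHB.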

[2] = tested on: Serratia marcescens expressing IMP-1 (CL5741); type: cell-based; settings: with imipenem 1 μg/ml; 95% inhibition of bacterial growth
Method in brief: as §1

[3] = tested on: Klebsiella pneumoniae expressing VIM-1 (IHMA599644); type: cell-based; settings: with imipenem 1 μg/ml; 95% inhibition of bacterial growth
Method in brief: as §1

[4] = tested on: P. aeruginosa MB9799 (efflux-, IMP-1 plasmid); type: cell-based, Pseudomonas aeruginosa; settings: efflux − (MB9799) strain; imipenem at 2 μg/mL; in the presence of a class A, C, D serine β-lactamase inhibitor closely related to relebactam
Method in brief: (§2)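 Isogenic P. aeruginosa PAO1 strains (efflux+ and multiple-efflux-pump-disrupted) carrying plasmid IMP-1, with inducible AmpC, tested by broth microdilution. Imipenem and/or ceftazidime fixed, usually at CLSI breakpoint, plus fixed class A/C β-lactamase inhibitor; titrated MBL inhibitor concentration restoring susceptibility recorded and compared between strains as efflux fold difference.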

VIM-2 = VIM-2 (Escherichia coli, UniProt Q5U7L7); assay: biochemical; settings: CCF2-FA fluorescence assay; read-out: VIM2 IC50
[5] = tested on: P. aeruginosa MB9798 (efflux+, IMP-1 plasmid); settings: for MB9798 MITC95 P. aeruginosa uM Efflux WT: efflux + (MB9798) strain, imipenem at 2 μg/mL, in the presence of a class A, C, D serine β-lactamase inhibitor closely related to relebactam; for Efflux ratio: fold difference between efflux+ (MB9798) and efflux− (MB9799) strains
Method in brief: as §2

NDM-1 = NDM-1 (Klebsiella pneumoniae, UniProt C7C422); assay: biochemical; type: biochemical; settings: CCF2-FA fluorescence assay, 2 hours at 25° C.
Chain of NDM-1 (C7C422 whole entry, looked up, species assumed): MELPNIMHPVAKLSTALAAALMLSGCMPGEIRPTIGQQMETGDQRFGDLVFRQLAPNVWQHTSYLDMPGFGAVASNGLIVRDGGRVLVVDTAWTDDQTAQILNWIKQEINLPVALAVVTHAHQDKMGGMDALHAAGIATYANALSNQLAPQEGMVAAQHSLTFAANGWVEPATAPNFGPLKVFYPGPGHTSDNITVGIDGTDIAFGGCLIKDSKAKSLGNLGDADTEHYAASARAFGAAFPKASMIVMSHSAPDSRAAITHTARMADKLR
Method in brief: (§3)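 Each enzyme (final 1 pM NDM-1, 2 pM IMP-1, 30 pM VIM-1) was incubated with test inhibitor (20 μM to 0.00063 μM) and 1.25 μM CCF2-FA for 2 hours at 25° C in zinc-supplemented phosphate buffer, pH 7. Fluorescence at 460 nm was then read and IC50 fitted with four parameters.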

IMP-1 = IMP-1 (Serratia marcescens, UniProt P52699); assay: biochemical; settings: CCF2-FA fluorescence assay, 2 hours at 25° C.; read-out: IMP1 IC50
Chain of IMP-1 (P52699 whole entry, looked up, species assumed): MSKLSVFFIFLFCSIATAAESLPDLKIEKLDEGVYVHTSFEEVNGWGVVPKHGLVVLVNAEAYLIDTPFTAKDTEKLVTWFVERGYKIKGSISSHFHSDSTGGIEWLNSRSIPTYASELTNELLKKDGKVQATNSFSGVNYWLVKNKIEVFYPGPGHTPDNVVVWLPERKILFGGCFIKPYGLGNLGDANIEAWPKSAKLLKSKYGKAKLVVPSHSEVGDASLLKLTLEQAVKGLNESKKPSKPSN
Method in brief: as §3

VIM-1 = VIM-1 (Pseudomonas aeruginosa (strain ATCC 15692 / DSM 22644 / CIP 104116 / JCM 14847 / LMG 12228 / 1C / PRS 101 / PAO1), UniProt A0A0F7KYQ8); assay: biochemical; settings: CCF2-FA fluorescence assay, 2 hours at 25° C.; read-out: VIM1 IC50
Method in brief: as §3

| SMILES | CLB30016 E. coli MITC95 NDM [1] [µM] | CL5741 S. marcescens MITC95 IMP [2] [µM] | IHMA599644 K. pneumoniae MITC95 VIM [3] [µM] | MB9799 MITC95 P. aeruginosa uM Efflux Mutant [4] [µM] | IC50 (VIM-2) [nM] | MB9798 MITC95 P. aeruginosa uM Efflux WT [5] [µM] | Efflux ratio [5] | IC50 (NDM-1) [nM] | IC50 (IMP-1) [nM] | IC50 (VIM-1) [nM] |
| --- | --- | --- | --- | --- | --- | --- | --- | --- | --- | --- |
| CS(=O)(=O)CCN1CCN(c2ccc(S(=O)(=O)NC[C@H](O)CN)c(S(N)(=O)=O)c2-c2nn[nH]n2)CC1 [Example 117, (R)—N1-(3-amino-2-hydroxypropyl)-4-(4-(2-(methylsulfonyl)ethyl)piperazin-1-yl)-3-(2H-tetrazol-5-yl)benzene-1,2-disulfonamide] | 3.13 | 0.78 | 6.25 | 3.13 | 2.28 | 12.50 | 4.00 | 0.94 | 0.55 | 2.58 |
| NC[C@@H](O)CNS(=O)(=O)c1ccc(N2CCC(C(N)=O)C2)c(-c2nn[nH]n2)c1S(N)(=O)=O (stereo partly drawn) [Example 118, 1-(4-(N—((R)-3-amino-2-hydroxypropyl)sulfamoyl)-3-sulfamoyl-2-(2H-tetrazol-5-yl)phenyl)pyrrolidine-3-carboxamide] | 1.56 | 1.56 | 3.13 | 1.56 | 2.44 | 1.56 | 1.00 | 1.55 | 1.25 | 1.2 |
| NCC(=O)N1CCN(c2ccc(S(=O)(=O)NC[C@H](O)CN)c(S(N)(=O)=O)c2-c2nn[nH]n2)CC1 [Example 119, (R)—N1-(3-amino-2-hydroxypropyl)-4-(4-(2-aminoacetyl)piperazin-1-yl)-3-(2H-tetrazol-5-yl)benzene-1,2-disulfonamide] | 0.78 | 0.78 | 1.56 | 0.78 | 10.1 | 1.56 | 2.00 | 3.45 | 6.56 | 0.57 |
| NC[C@@H](O)CNS(=O)(=O)c1ccc(N2CCC(O)CC2)c(-c2nn[nH]n2)c1S(N)(=O)=O [Example 120, (R)-N1-(3-amino-2-hydroxypropyl)-4-(4-hydroxypiperidin-1-yl)-3-(2H-tetrazol-5-yl)benzene-1,2-disulfonamide] | 1.56 | 1.56 | 3.13 | 1.56 | 0.79 | 1.56 | 1.00 | 0.56 | 0.76 | 0.26 |
| NC[C@@H](O)CNS(=O)(=O)c1ccc(N2CC[C@@H](CN)C2)c(-c2nn[nH]n2)c1S(N)(=O)=O [Example 121, N1-((R)-3-amino-2-hydroxypropyl)-4-((S)-3-(aminomethyl)pyrrolidin-1-yl)-3-(2H-tetrazol-5-yl)benzene-1,2-disulfonamide] | 1.56 | 1.56 | 0.78 | 3.13 | 30.4 | 6.25 | 2.00 | 58.7 | 66.8 | 4.54 |
| NC[C@@H](O)CNS(=O)(=O)c1ccc(N2CCNC(CO)C2)c(-c2nn[nH]n2)c1S(N)(=O)=O (stereo partly drawn) [Example 122, N1-((R)-3-amino-2-hydroxypropyl)-4-(3-(hydroxymethyl)piperazin-1-yl)-3-(2H-tetrazol-5-yl)benzene-1,2-disulfonamide] | 0.20 | 0.39 | 0.78 | 0.78 | 6.86 | 1.56 | 2.00 | 14.3 | 24.4 | 3.34 |
| NC[C@@H](O)CNS(=O)(=O)c1ccc(N2CCC(CNCCO)CC2)c(-c2nn[nH]n2)c1S(N)(=O)=O [Example 123, (R)-N1-(3-amino-2-hydroxypropyl)-4-(4-(((2-hydroxyethyl)amino)methyl)piperidin-1-yl)-3-(2H-tetrazol-5-yl)benzene-1,2-disulfonamide] | 0.39 | 0.39 | 1.56 | 0.78 | 7.51 | 1.56 | 2.00 | 10.8 | 6.18 | 0.25 |
| NC[C@@H](O)CNS(=O)(=O)c1ccc(N2CC[C@@H](N)C2)c(-c2nn[nH]n2)c1S(N)(=O)=O [Example 125, N1-((R)-3-amino-2-hydroxypropyl)-4-((R)-3-aminopyrrolidin-1-yl)-3-(2H-tetrazol-5-yl)benzene-1,2-disulfonamide] | 0.78 | 3.13 | 1.56 | 3.13 | 53.9 | 6.25 | 2.00 | 88.1 | 61.4 | 10.9 |
| NC[C@@H](O)CNS(=O)(=O)c1ccc(N2CC[C@H](N)C2)c(-c2nn[nH]n2)c1S(N)(=O)=O [Example 126, N1-((R)-3-amino-2-hydroxypropyl)-4-((S)-3-aminopyrrolidin-1-yl)-3-(2H-tetrazol-5-yl)benzene-1,2-disulfonamide] | 1.56 | 3.13 | 0.78 | 3.13 | 32.5 | 6.25 | 2.00 | 200 | 124 | 7.7 |
| NS(=O)(=O)c1c(S(=O)(=O)N[C@@H]2CCNC2)ccc(N2CCNC(CO)CC2)c1-c1nn[nH]n1 (stereo partly drawn) [Example 127, 4-(5-(hydroxymethyl)-1,4-diazepan-1-yl)-N1-((R)-pyrrolidin-3-yl)-3-(2H-tetrazol-5-yl)benzene-1,2-disulfonamide] | 0.39 | 0.78 | 0.78 | 0.78 | 24.6 | 3.13 | 4.00 | 18.9 | 33.7 | 1.25 |
| NCC1CCN(c2ccc(S(=O)(=O)C[C@H](O)CN)c(S(N)(=O)=O)c2-c2nn[nH]n2)CC1 [Example 128, (R)-6-((3-amino-2-hydroxypropyl)sulfonyl)-3-(4-(aminomethyl)piperidin-1-yl)-2-(2H-tetrazol-5-yl)benzenesulfonamide] | 0.39 | 0.78 | 0.78 | 0.39 | 13.3 | 0.78 | 2.00 | 8.71 | 3.65 | 0.94 |
| NC[C@@H](O)CNS(=O)(=O)c1ccc(N2CCN3CCOCC3C2)c(-c2nn[nH]n2)c1S(N)(=O)=O (stereo partly drawn) [Example 129, N1-((R)-3-amino-2-hydroxypropyl)-4-(hexahydropyrazino [2,1-c][1,4]oxazin-8(1H)-yl)-3-(2H-tetrazol-5-yl)benzene-1,2-disulfonamide 2,2,2-trifluoroacetate] | 6.25 | 3.13 | 12.50 | 3.13 | 6.44 | 6.25 | 2.00 | 2.7 | 4.72 | 3.53 |
